Data published in patent US20240165196A1, “Beta-Lactamase Inhibitors” (VIB VZW, priority 2021, published 2024).

Tests used:
[1] = peptide solubility and self-aggregation (DLS, Thioflavin T, electron microscopy, pFTAA)
Excerpt: Three replicates are shown for each condition. […] A single representative image is shown. […] Three replicates are shown for each condition. […] A single representative image is shown. […] A single representative image is shown. […] A single representative image is shown.
A DynaPro DLS plate reader instrument (Wyatt, Santa Barbara, CA, USA) equipped with an 830 nm laser source was used to determine the hydrodynamic radius (RH) of the peptide particles. Two hundred microliters of each sample (at 100 or 10 μM, unless stated otherwise) were placed into a flat-bottom 96-well microclear plate (Greiner, Frickenhausen, Germany). The autocorrelation of scattered light intensity at a 32° angle was recorded for 5 s and averaged over 20 recordings to obtain a single data point. The Wyatt Dynamics v7.1 software was used to calculate the hydrodynamic radius by assuming […] particles. The amyloid-specific dye Thioflavin-T (Th-T, Sigma-Aldrich, CAS number 2390-54-7) was used to study the aggregation state of peptides.

[2] = test system: E. coli K12 MG1655 overexpressing GFP; assay: Structured Illumination Microscopy of bacterial strains stably expressing GFP or FP fusions; type: cell-based; settings: strains expressing GFP or proteins fused to FPs, treated with TEM3.2
Procedure: FIGS. 3A-3P. […] Three replicates are shown for each condition. […] A single representative image is shown. […] Three replicates are shown for each condition. (FIG. 3E) [Left] […] [Middle] […] [Right] […] A single representative image is shown. […] A single representative image is shown. […] A single representative image is shown. […] A single representative blot is shown. […] 106 cells were analysed for the plot.
Moreover, we confirmed the presence of the protein in the correct band using mass spectrometry proteomics. We repeated this with a strain expressing SHV-154, blotting with a polyclonal rabbit antibody raised against the recombinant SHV enzyme described above (FIG. 3K).
Bacteria were fixed by adding 2.5% paraformaldehyde and 0.04% glutaraldehyde (final concentrations) to the culture media, followed by incubation at room temperature for 15 mins and 30 mins on ice. Bacteria were then washed in PBS and resuspended in GTE buffer (50 mM glucose, 25 mM Tris, and 10 mM EDTA, pH 8.0). Directly preceding microscopic analysis, cells were transferred to a glass slide and covered with a coverslip. Imaging was performed using a Zeiss Elyra S.1 system in the LiMoNe Light microscopy facility of VIB-KU Leuven.

[3] = test system: HEK293; type: cell-based, human
[4] = test system: NCI-H441; type: cell-based, human
[5] = test system: primary mouse cortical neurons; type: cell-based
[6] = test system: uro-pathogenic E. coli strain (UPEC strain blaTEM-1); assay: MIC of ampicillin on the uro-pathogenic strain; type: cell-based; settings: 32 μg/ml of TEM3.2 or tazobactam
Procedure: Vehicle alone (0.9% NaCl) was also administered (IV).
Determination of MIC values using the broth microdilution in the 96-well plate (BD Biosciences, Belgium) according to the EUCAST guideline, which was performed in 96-well polystyrene flat bottom microtiter plates (BD Biosciences). Briefly, a single colony was inoculated into 5 mL Difco™ Mueller Hinton Broth (BD Biosciences Ref 275730) and grown to the end-exponential growth phase in a shaking incubator at 37° C. Cultures were subsequently diluted to an MacFarland (0.5 optical density) then the culture was diluted to reach 10^6 CFU/mL in fresh MHB medium. 50 μl of different concentration of peptides ranging from 128 to 2 μg/mL were serially diluted to the sterile 96-well plate in MHB. 50 μL of the diluted bacteria in MHB were pipetted into 96-well plates to reach the final volume of 100 μL. The bacteria grown with the maximum concentration of carrier and medium were considered as positive and negative controls, respectively. The plates were statically incubated overnight at 37° C. to allow bacterial growth. OD was measured at 590 nm a multipurpose ultraviolet-visible plate reader, and the absorbance of the growth bacteria was measured using absorbance reader. Bacterial growth was also visually inspected and agreed well with the OD reading.

Ac-RLTAFLHNRRPRLTAFLRQRR-NH2 [TEM3.2]
solubility by Dynamic Light Scattering ([1]; 50 μM peptide in buffer alone (50 mM Tris pH 8.5, 300 mM NaCl)): soluble in vitro | aggregation of the peptide in presence of polyphosphate (ThT binding, electron microscopy) ([1]; 50 μM peptide, buffer with polyP): amyloid-like aggregation | induced aggregation of fluorescent proteins [2]: did not observe any induced aggregation | cytotoxicity (Cell Titer Blue) [3]: not cytotoxic | cytotoxicity (Cell Titer Blue) [4]: not cytotoxic | cytotoxicity (Cell Titer Blue) [5]: not cytotoxic | MIC Ampicillin in the presence of additive [6]: 25 µg/mL
